Patent US8580820B2, “Tubulysin compounds with high cytotoxicity, pharmaceutical compositions thereof, and method of use thereof” (Kemtech S.r.L., priority 2009, dated 2013)

Columns and labels:
C6 (rat glioma) = assay: Cytotoxicity in vitro, cellular viability (ATPlite Perkin Elmer test), C6; type: cell-based; design: cellular viability (ATPlite Perkin Elmer test): unit not given here; details: C6, 72 hours
Protocol: (§1) The cytotoxic effects of the compounds of formula (A) were evaluated by treating […] with different concentrations of the compounds under screening. The following cell lines were used: A2780 (human ovarian carcinoma), HL60 (human leukaemia), C6 (rat glioma) and HT29 (adenocarcinoma of human colon). The cell lines have been obtained by ECACC (European Collection of Cell Cultures).
(§2) The cell lines have been cultured in 75 cm^2 flasks with culture medium DMEM (Dulbecco's Medium Eagle Modified, Sigma Aldrich®) and the following additives (Sigma Aldrich®): L-Glutamine 2 mM, 10% Fetal Bovine Serum, Penicillin/-Streptomycin, Fungizone, Gentamycin. The incubation was carried out in modified atmosphere incubators (37° C., 5% CO2). When cell confluence was obtained, the cells were propagated by dilution in a ratio 1:3/1:5 by using a Trypsin-EDTA 1× solution and then transferred into 96 well plates in the suitable culture medium. The cells were then treated for 72 hours with different concentrations (10^−13+10^−4 M) of the compounds under examination. For the tests in vitro the compounds obtained in the examples 1.15 and 6.8 were solubilised in dimethylsulphoxide (DMSO). All the tests were performed with a constant DMSO concentration equal to 0.1% by weight.
(§3) In order to control the cellular viability, the ATPlite test (Perkin Elmer) was used. The APTlite test evaluates the ATP production. APT is a marker of cellular viability as it is present in all the metabolically active cells. The test’ is based on the chemiluminiscence due to the ATP reaction with the luciferase and the D-luciferin. The emitted light is proportional to the ATP concentration. For the reading the Victor 3 instrument by Perkin Elmer was used.
(§4) Four readings were taken for each sample solution. The results (average values) for the cytotoxicity of the compounds of formula (A) obtained in examples 1.15 and 6.8 are reported respectively in Tables 1 and 2. It is noted that the GI50 values determined by means of the cellular viability values are lower than 2 nM. This confirms the high cytotoxicity of the compound of formula (A).

[1] = as above; type: cell-based, rat; design: cellular viability (ATPlite Perkin Elmer test): unit not given here; details: rat, C6 rat glioma cells, C6, 72 hours
Protocol: as §1, §2, §3, §4

[2] = system: A2780, HL60, C6 and HT29 cell lines; assay: Cytotoxicity in vitro, summary over the cell lines of example 14; type: cell-based, human; rat; details: all cell lines of Tables 1 and 2; read-out: GI50 values determined by means of the cellular viability values
Protocol: as §1
as §2, with “All the tests were performed with a constant DMSO concentration equal to 0.1% by weight.” left out
In order to control the cellular viability, the ATPlite test (Perkin Elmer) was used. […] For the reading the Victor 3 instrument by Perkin Elmer was used.
Four readings were taken for each sample solution. […]

[3] = system: A2780 (human ovarian carcinoma); assay: Cytotoxicity in vitro, cellular viability (ATPlite Perkin Elmer test), A2780; type: cell-based; design: cellular viability (ATPlite Perkin Elmer test): unit not given here; details: 72 hours
Protocol: as §1, §2, §3, §4

[4] = system: HT29 (adenocarcinoma of human colon); assay: Cytotoxicity in vitro, cellular viability (ATPlite Perkin Elmer test), HT29; type: cell-based; design: cellular viability (ATPlite Perkin Elmer test): unit not given here; details: for cellular viability (ATPlite Perkin Elmer test): 72 hours
Protocol: as §1, §2, §3, §4

HL60 (human leukaemia) = assay: Cytotoxicity in vitro, cellular viability (ATPlite Perkin Elmer test), HL60; type: cell-based; design: cellular viability (ATPlite Perkin Elmer test): unit not given here; details: HL60, 72 hours
Protocol: as §1, §2, §3, §4

CC[C@H](C)[C@H](NC(=O)[C@H]1CCCCN1C)C(=O)N(CCOC)[C@H](C[C@@H](OC(C)=O)c1nc(C(=O)N[C@@H](Cc2ccccc2)C[C@H](C)C(=O)O)cs1)C(C)C [Example 6.8, (2S,4R)-4-(2-((1R,3R)-1-acetoxy-3-((2S,3R)—N(2-methoxyethyl)-3-methyl-2-(1-methylpiperidine-2-carboxamido)pentanamido)-4-methylpentyl)thiazol-4-carboxamido)-2-methyl-5-phenylpentanoic acid]
cellular viability (ATPlite Perkin Elmer test) (C6 (rat glioma); compound 10^−4 mole/litre): 19.10
cellular viability (ATPlite Perkin Elmer test) (C6 (rat glioma); compound 10^−7 mole/litre): 20.70
cellular viability (ATPlite Perkin Elmer test) (C6 (rat glioma); compound 10^−8 mole/litre): 25.60
cellular viability (ATPlite Perkin Elmer test) (C6 (rat glioma); compound 10^−9 mole/litre): 39.57
cellular viability (ATPlite Perkin Elmer test) (C6 (rat glioma); compound 10^−10 mole/litre): 64.15
cellular viability (ATPlite Perkin Elmer test) (C6 (rat glioma); compound 10^−11 mole/litre): 96.68
cellular viability (ATPlite Perkin Elmer test) (C6 (rat glioma); compound 10^−12 mole/litre): 99.13
cellular viability (ATPlite Perkin Elmer test) (C6 (rat glioma); compound 10^−13 mole/litre): 101.2
GI50 (C6 (rat glioma); Rattus norvegicus, value is GI50 multiplied by 10^9, Table 2, read-out: GI50 × 10^9): 0.147 nM
viability at 72 h ([1]; compound 10^−5 mole/litre): 20.2%
viability at 72 h ([1]; compound 10^−6 mole/litre): 19.6%
GI50 [2]: < 2 nM
GI50 ([3]; Homo sapiens, value is GI50 multiplied by 10^9, Table 2, read-out: GI50 × 10^9): 1.54 nM
cellular viability (ATPlite Perkin Elmer test) ([3]; compound 10^−4 mole/litre): 3.08
cellular viability (ATPlite Perkin Elmer test) ([3]; compound 10^−5 mole/litre): 8.41
cellular viability (ATPlite Perkin Elmer test) ([3]; compound 10^−6 mole/litre): 9.11
cellular viability (ATPlite Perkin Elmer test) ([3]; compound 10^−7 mole/litre): 9.11
cellular viability (ATPlite Perkin Elmer test) ([3]; compound 10^−8 mole/litre): 22.80
cellular viability (ATPlite Perkin Elmer test) ([3]; compound 10^−9 mole/litre): 64.56
cellular viability (ATPlite Perkin Elmer test) ([3]; compound 10^−10 mole/litre): 106.7
cellular viability (ATPlite Perkin Elmer test) ([3]; compound 10^−11 mole/litre): 109.7
cellular viability (ATPlite Perkin Elmer test) ([3]; compound 10^−12 mole/litre): 104.1
cellular viability (ATPlite Perkin Elmer test) ([3]; compound 10^−13 mole/litre): 104.0
GI50 ([4]; Homo sapiens, HT-29, 72 hours, value is GI50 multiplied by 10^9, Table 2): 0.278 nM
cellular viability (ATPlite Perkin Elmer test) ([4]; compound 10^−4 mole/litre): 11.55
cellular viability (ATPlite Perkin Elmer test) ([4]; compound 10^−5 mole/litre): 11.46
cellular viability (ATPlite Perkin Elmer test) ([4]; compound 10^−6 mole/litre): 18.08
cellular viability (ATPlite Perkin Elmer test) ([4]; compound 10^−7 mole/litre): 17.68
cellular viability (ATPlite Perkin Elmer test) ([4]; compound 10^−8 mole/litre): 20.38
cellular viability (ATPlite Perkin Elmer test) ([4]; compound 10^−9 mole/litre): 24.49
cellular viability (ATPlite Perkin Elmer test) ([4]; compound 10^−10 mole/litre): 95.7
cellular viability (ATPlite Perkin Elmer test) ([4]; compound 10^−11 mole/litre): 115.6
cellular viability (ATPlite Perkin Elmer test) ([4]; compound 10^−12 mole/litre): 107.5
cellular viability (ATPlite Perkin Elmer test) ([4]; compound 10^−13 mole/litre): 108.0
cellular viability (ATPlite Perkin Elmer test) (HL60 (human leukaemia); compound 10^−4 mole/litre): 0.75
cellular viability (ATPlite Perkin Elmer test) (HL60 (human leukaemia); compound 10^−5 mole/litre): 1.22
cellular viability (ATPlite Perkin Elmer test) (HL60 (human leukaemia); compound 10^−6 mole/litre): 1.25
cellular viability (ATPlite Perkin Elmer test) (HL60 (human leukaemia); compound 10^−7 mole/litre): 1.14
cellular viability (ATPlite Perkin Elmer test) (HL60 (human leukaemia); compound 10^−8 mole/litre): 1.04
cellular viability (ATPlite Perkin Elmer test) (HL60 (human leukaemia); compound 10^−9 mole/litre): 1.36
cellular viability (ATPlite Perkin Elmer test) (HL60 (human leukaemia); compound 10^−10 mole/litre): 3.53
cellular viability (ATPlite Perkin Elmer test) (HL60 (human leukaemia); compound 10^−11 mole/litre): 56.38
cellular viability (ATPlite Perkin Elmer test) (HL60 (human leukaemia); compound 10^−12 mole/litre): 102.0
cellular viability (ATPlite Perkin Elmer test) (HL60 (human leukaemia); compound 10^−13 mole/litre): 100.9
GI50 (HL60 (human leukaemia); Homo sapiens, HL-60, value is GI50 multiplied by 10^9, Table 2, read-out: GI50 × 10^9): 0.0108 nM
